The results in this text go back to patent US20100004221A1, “THIAZEPINE DERIVATIVE” (DAIICHI SANKYO COMPANY, LIMITED, priority 2006, published 2010).

The melting point is the temperature of the solid-liquid transition.

`CC1(CO)Cc2nnc(-c3ccc(-c4ccc(F)cc4)cc3Cl)n2CCS1` (single isomer, unassigned; (+)) [Example 57, (+)-[3-(3-Chloro-4′-fluorobiphenyl-4-yl)-8-methyl-5,6,8,9-tetrahydro[1,2,4]triazolo[4,3-d][1,4]thiazepin-8-yl]methanol] gave a melting point of 211 to 214 °C.
Regarding `CC1(CO)Cc2nnc(-c3ccc(-c4ccc(F)cc4)cc3Cl)n2CCS1` (single isomer, unassigned; (-)) [Example 56, (−)-[3-(3-chloro-4′-fluorobiphenyl-4-yl)-8-methyl-5,6,8,9-tetrahydro[1,2,4]triazolo[4,3-d][1,4]thiazepin-8-yl]methanol], the melting point fell in the range of 212 to 215 °C.
Molecule `CC1(CO)Cc2nnc(-c3ccc(-c4ccccc4)cc3Cl)n2CCS1` (centres unmarked) [Example 9, [3-(3-Chlorobiphenyl-4-yl)-8-methyl-5,6,8,9-tetrahydro[1,2,4]triazolo[4,3-d][1,4]thiazepin-8-yl]methanol] displayed a melting point of 166 to 169 °C.
For `COc1cc(-c2ccc(F)cc2)ccc1-c1nnc2n1CCSC(C)(CO)C2` (centres unmarked) [Example 10, [3-(4′-Fluoro-3-methoxybiphenyl-4-yl)-8-methyl-5,6,8,9-tetrahydro[1,2,4]triazolo[4,3-d][1,4]thiazepin-8-yl]methanol], the melting point fell in the range of 212 to 215 °C.
Molecule `CC1(CO)Cc2nnc(-c3ccc(-c4cccc(Cl)c4)cc3F)n2CCS1` (centres unmarked) [Example 11, [3-(3′-Chloro-3-fluorobiphenyl-4-yl)-8-methyl-5,6,8,9-tetrahydro[1,2,4]triazolo[4,3-d][1,4]thiazepin-8-yl]methanol] gave a melting point of 165 to 168 °C.
As for `CC1(CO)Cc2nnc(-c3ccc(-c4ccccc4F)cc3Cl)n2CCS1` (centres unmarked) [Example 13, [3-(3-Chloro-2′-fluorobiphenyl-4-yl)-8-methyl-5,6,8,9-tetrahydro[1,2,4]triazolo[4,3-d][1,4]thiazepin-8-yl]methanol], the figure is 147 to 149 °C.
Consider `CC1(CO)Cc2nnc(-c3ccc(-c4ccccc4Cl)cc3Cl)n2CCS1` (centres unmarked) [Example 14, [3-(3,2′-Dichlorobiphenyl-4-yl)-8-methyl-5,6,8,9-tetrahydro[1,2,4]triazolo[4,3-d][1,4]thiazepin-8-yl]methanol], for which the melting point lay within 177 to 180 °C.
Consider `CC1(CO)Cc2nnc(-c3ccc(-c4cccc(F)c4)cc3Cl)n2CCS1` (centres unmarked) [Example 15, [3-(3-Chloro-3′-fluorobiphenyl-4-yl)-8-methyl-5,6,8,9-tetrahydro[1,2,4]triazolo[4,3-d][1,4]thiazepin-8-yl]methanol], for which the melting point was in the range of 206 to 209 °C.
`CC1(CO)Cc2nnc(-c3ccc(-c4cccc(Cl)c4)cc3Cl)n2CCS1` (centres unmarked) [Example 16, [3-(3,3′-Dichlorobiphenyl-4-yl)-8-methyl-5,6,8,9-tetrahydro[1,2,4]triazolo[4,3-d][1,4]thiazepin-8-yl]methanol] had a melting point of 173 to 176 °C.
`CC1(CO)Cc2nnc(-c3ccc(-c4cccc(C(F)(F)F)c4)cc3Cl)n2CCS1` (centres unmarked) [Example 17, [3-(3-Chloro-3′-trifluoromethylbiphenyl-4-yl)-8-methyl-5,6,8,9-tetrahydro[1,2,4]triazolo[4,3-d][1,4]thiazepin-8-yl]methanol]: the melting point was in the range of 195 to 198 °C.
In the case of `COc1cccc(-c2ccc(-c3nnc4n3CCSC(C)(CO)C4)c(Cl)c2)c1` (centres unmarked) [Example 18, [3-(3-Chloro-3′-methoxybiphenyl-4-yl)-8-methyl-5,6,8,9-tetrahydro[1,2,4]triazolo[4,3-d][1,4]thiazepin-8-yl]methanol], the melting point fell in the range of 181 to 184 °C.
In the case of `CC1(CO)Cc2nnc(-c3ccc(-c4ccc(Cl)cc4)cc3Cl)n2CCS1` (centres unmarked) [Example 19, [3-(3,4′-Dichlorobiphenyl-4-yl)-8-methyl-5,6,8,9-tetrahydro[1,2,4]triazolo[4,3-d][1,4]thiazepin-8-yl]methanol] it was 219 to 223 °C; in that of `Cc1ccc(-c2ccc(-c3nnc4n3CCSC(C)(CO)C4)c(Cl)c2)cc1` (centres unmarked) [Example 20, [3-(3-Chloro-4′-methylbiphenyl-4-yl)-8-methyl-5,6,8,9-tetrahydro[1,2,4]triazolo[4,3-d][1,4]thiazepin-8-yl]methanol], 223 to 225 °C; in that of `COc1ccc(-c2ccc(-c3nnc4n3CCSC(C)(CO)C4)c(Cl)c2)cc1` (centres unmarked) [Example 21, [3-(3-Chloro-4′-methoxybiphenyl-4-yl)-8-methyl-5,6,8,9-tetrahydro[1,2,4]triazolo[4,3-d][1,4]thiazepin-8-yl]methanol], 179 to 182 °C.
`CC1(CO)Cc2nnc(-c3ccc(-c4ccc(F)cc4)cc3C(F)(F)F)n2CCS1` (centres unmarked) [Example 22, {3-[4′-Fluoro-3-(trifluoromethyl)biphenyl-4-yl)-8-methyl-5,6,8,9-tetrahydro[1,2,4]triazolo[4,3-d][1,4]thiazepin-8-yl]methanol] gave a melting point of 202 to 204 °C.
`COc1cc(-c2cccc(Cl)c2)ccc1-c1nnc2n1CCSC(C)(CO)C2` (centres unmarked) [Example 24, [3-(3′-Chloro-3-methoxybiphenyl-4-yl)-8-methyl-5,6,8,9-tetrahydro[1,2,4]triazolo[4,3-d][1,4]thiazepin-8-yl]methanol] had a melting point of 173 to 176 °C.
In turn, `COc1cc(-c2cccc(C#N)c2)ccc1-c1nnc2n1CCSC(C)(CO)C2` (centres unmarked) [Example 25, 4′-[8-(Hydroxymethyl)-8-methyl-5,6,8,9-tetrahydro[1,2,4]triazolo[4,3-d][1,4]thiazepin-3-yl]-3′-methoxybiphenyl-3-carbonitrile] registered a melting point of 232 to 236 °C.
In the case of `CC1(CO)Cc2nnc(-c3ccc(-c4ccc(F)c(F)c4)cc3Cl)n2CCS1` (centres unmarked) [Example 26, [3-(3-Chloro-3′,4′-difluorobiphenyl-4-yl)-8-methyl-5,6,8,9-tetrahydro[1,2,4]triazolo[4,3-d][1,4]thiazepin-8-yl]methanol], the melting point fell in the range of 231 to 234 °C.
In the case of `CC1(CO)Cc2nnc(-c3ccc(-c4cc(F)cc(F)c4)cc3Cl)n2CCS1` (centres unmarked) [Example 27, [3-(3-Chloro-3′,5′-difluorobiphenyl-4-yl)-8-methyl-5,6,8,9-tetrahydro[1,2,4]triazolo[4,3-d][1,4]thiazepin-8-yl]methanol], the melting point lay in the range of 260 to 265 °C.
As for `CC1(CO)Cc2nnc(-c3ccc(-c4cccc(Cl)c4F)cc3Cl)n2CCS1` (centres unmarked) [Example 28, [3-(3,3′-Dichloro-2′-fluorobiphenyl-4-yl)-8-methyl-5,6,8,9-tetrahydro[1,2,4]triazolo[4,3-d][1,4]thiazepin-8-yl]methanol], the figure is 156 to 160 °C; as for `CC1(CO)Cc2nnc(-c3ccc(-c4cc(Cl)ccc4F)cc3Cl)n2CCS1` (centres unmarked) [Example 29, [3-(3,5′-Dichloro-2′-fluorobiphenyl-4-yl)-8-methyl-5,6,8,9-tetrahydro[1,2,4]triazolo[4,3-d][1,4]thiazepin-8-yl]methanol], 186 to 189 °C.
As for `CC1(CO)Cc2nnc(-c3ccc(-c4ccc(F)c(Cl)c4)cc3Cl)n2CCS1` (centres unmarked) [Example 30, [3-(3,3′-Dichloro-4′-fluorobiphenyl-4-yl)-8-methyl-5,6,8,9-tetrahydro[1,2,4]triazolo[4,3-d][1,4]thiazepin-8-yl]methanol], the figure is 235 to 239 °C; as for `COc1cc(-c2ccc(F)c(F)c2)ccc1-c1nnc2n1CCSC(C)(CO)C2` (centres unmarked) [Example 31, [3-(3′,4′-Difluoro-3-methoxybiphenyl-4-yl)-8-methyl-5,6,8,9-tetrahydro[1,2,4]triazolo[4,3-d][1,4]thiazepin-8-yl]methanol], 183 to 185 °C; as for `CC1(CO)Cc2nnc(-c3cccc(-c4ccc(F)cc4)c3Cl)n2CCS1` (centres unmarked) [Example 33, [3-(2-Chloro-4′-fluorobiphenyl-3-yl)-8-methyl-5,6,8,9-tetrahydro[1,2,4]triazolo[4,3-d][1,4]thiazepin-8-yl]methanol], 192 to 195 °C.
In the case of `CC1(CO)Cc2nnc(-c3cc(-c4ccc(F)cc4)ccc3Cl)n2CCS1` (centres unmarked) [Example 34, [3-(4-Chloro-4′-fluorobiphenyl-3-yl)-8-methyl-5,6,8,9-tetrahydro[1,2,4]triazolo[4,3-d][1,4]thiazepin-8-yl]methanol] it was 165 to 168 °C; in that of `CC1(CO)Cc2nnc(-c3ccc(-c4cccnc4)cc3Cl)n2CCS1` (centres unmarked) [Example 35, {3-[2-Chloro-4-(pyridin-3-yl)phenyl]-8-methyl-5,6,8,9-tetrahydro[1,2,4]triazolo[4,3-d][1,4]thiazepin-8-yl}methanol], 206 to 209 °C.
The molecule `CC1(CO)Cc2nnc(-c3ccc(-c4ccncc4)cc3Cl)n2CCS1` (centres unmarked) [Example 36, {3-[2-Chloro-4-(pyridin-4-yl)phenyl]-8-methyl-5,6,8,9-tetrahydro[1,2,4]triazolo[4,3-d][1,4]thiazepin-8-yl}methanol] registered a melting point of 229 to 233 °C.
`CC1(CO)Cc2nnc(-c3ccc(N4CCOCC4)cc3Cl)n2CCS1` (centres unmarked) [Example 37, {3-[2-Chloro-4-(morpholin-4-yl)phenyl]-8-methyl-5,6,8,9-tetrahydro[1,2,4]triazolo[4,3-d][1,4]thiazepin-8-yl}methanol]: the melting point lay in the range of 191 to 193 °C.
In turn, `CC1(CO)Cc2nnc(-c3ccc(N4CCCCC4)cc3Cl)n2CCS1` (centres unmarked) [Example 38, {3-[2-Chloro-4-(piperidin-1-yl)phenyl]-8-methyl-5,6,8,9-tetrahydro[1,2,4]triazolo[4,3-d][1,4]thiazepin-8-yl}methanol] showed a melting point of 195 to 198 °C.
On to `CC1(CO)Cc2nnc(-c3ccc(N4CCCC4)cc3Cl)n2CCS1` (centres unmarked) [Example 39, {3-[2-Chloro-4-(pyrrolidin-1-yl)phenyl]-8-methyl-5,6,8,9-tetrahydro[1,2,4]triazolo[4,3-d][1,4]thiazepin-8-yl}methanol], for which the melting point lay within 193 to 196 °C.
In turn, `CC1(CO)Cc2nnc(-c3ccc(-n4cccc4)cc3Cl)n2CCS1` (centres unmarked) [Example 40, {3-[2-Chloro-4-(1H-pyrrol-1-yl)phenyl]-8-methyl-5,6,8,9-tetrahydro[1,2,4]triazolo[4,3-d][1,4]thiazepin-8-yl}methanol] gave a melting point of 110 to 112 °C.
The molecule `CC1(CO)Cc2nnc(-c3ccc(Oc4ccc(F)cc4)cc3Cl)n2CCS1` (centres unmarked) [Example 42, {3-[2-Chloro-4-(4-fluorophenoxy)phenyl]-8-methyl-5,6,8,9-tetrahydro[1,2,4]triazolo[4,3-d][1,4]thiazepin-8-yl}methanol] came in with a melting point of 138 to 140 °C.
